The values below come from patent US4604380A, “C-23-substituted mycaminosyltylonolide compounds, pharmaceutical compositions and methods of use” (Eli Lilly and Company, priority 1985, dated 1986).

≈ marks a conversion by molar mass, not a printed value. Where “and” joins values, the source holds several entries; their conditions need not be identical. Equal entries are not always repeated. Where two headings read alike, the source gives them in different places.

For test [1], the system named is Streptococcus pneumoniae Park I. Briefly: microbe, parasite or virus in culture. The test is classed as cell-based. As to the method: (§1) The MIC's s in Table III were determined by standard agar-dilution assays. The MIC's in Table IV were obtained using a conventional broth-dilution microtiter test.
In test [2] the test system is Streptococcus pyogenes. Briefly: ED50 vs Streptococcus pyogenes experimental infection in mice (Table VI). The test is classed as in vivo. The settings on record: two doses, several values = results from more than one test. On the procedure: (§2) Certain formula 1a compounds have also shown in vivo antimicrobial activity against experimental bacterial infections. When two doses of test compound were administered to mice in experimental infections, the activity observed was measured as an ED50 value [effective dose in mg/kg to protect 50% of the test animals: see Warren Wick, et al., J. Bacteriol. 81, 233-235 (1961)].

The subject of test [3] is Staphylococcus epidermidis EPI1. Briefly: MIC, standard agar-dilution assay (Table III). The test is classed as cell-based. As to the method: as §1
For test [4], the system named is Haemophilus influenzae C.L. The test is described as follows: MIC, standard agar-dilution assay (Table III). The test is classed as cell-based. As to the method:
as §1

The test system of test [5] is Staphylococcus aureus S13E. Briefly: MIC, standard agar-dilution assay (Table III). The test is classed as cell-based. As to the method: as §1
Test [6] has as its system Haemophilus influenzae 76. The test is described as follows: MIC, standard agar-dilution assay (Table III). The test is classed as cell-based. To be noted: agar dilution; Haemophilus influenzae 76, ampicillin-resistant strain; read-out: MIC. As to the method:
as §1
A general note: Agar dilution tests growth on a series of plates holding different concentrations.

Test [7] relates to Staphylococcus epidermidis 222. Briefly: MIC, standard agar-dilution assay (Table III). The test is classed as cell-based. On the procedure: as §1
The subject of test [8] is Streptococcus Group D 2041. The test is described as follows: MIC, standard agar-dilution assay (Table III). The test is classed as cell-based. The settings on record: GROUPD2041. On the procedure: as §1
Test [9] deals with Streptococcus pyogenes C203. The test is described as follows: MIC, standard agar-dilution assay (Table III). The test is classed as cell-based. On the procedure:
as §1

Test [10] concerns Staphylococcus aureus V41. The test is described as follows: MIC, standard agar-dilution assay (Table III). The test is classed as cell-based. To be noted: Staphylococcus aureus V41, penicillin-resistant strain. On the procedure:
as §1

The subject of test [11] is Staphylococcus aureus X400. Briefly: MIC, standard agar-dilution assay (Table III). The test is classed as cell-based. The settings on record: Staphylococcus aureus, X400. As to the method:
as §1

For test [12], the system named is Staphylococcus aureus X1.1. Briefly: MIC, standard agar-dilution assay (Table III). The test is classed as cell-based. On the procedure:
as §1

Test [13] relates to Streptococcus Group D X66. Briefly: MIC, standard agar-dilution assay (Table III). The test is classed as cell-based. On the procedure:
as §1

Test [14] relates to Streptococcous pneumoniae. Briefly: ED50 vs. Streptococcous pneumoniae experimental infection in mice (Table VII). The test is classed as in vivo. To be noted: two doses; for ED50: Mus musculus. As to the method:
as §2

For test [15], the system named is Staphylococcus aureus. Briefly: ED50 vs. Staphylococcus aureus experimental infection in mice (Table V). The test is classed as in vivo. To be noted: two doses, dose protecting 50% of animals. On the procedure: as §2
Setting [16] is: agar dilution, Streptococcus pneumoniae Park I, read-out: MIC.
Setting [17] is: sc, subcutaneous, read-out: ED50 Subcutaneous.
[18] abbreviates: Staphylococcus epidermidis, EPI1.
[19] abbreviates: agar dilution, Staphylococcus epidermidis 222, read-out: MIC.
Where [20] appears, read: agar dilution, Streptococcus pyogenes C203, read-out: MIC.
[21] abbreviates: Streptococcus pneumoniae, read-out: MIC.
Where [22] appears, read: agar dilution, Haemophilus influenzae C.L., ampicillin-sensitive strain, read-out: MIC.
Setting [23] is: agar dilution, Streptococcus Group D X66, read-out: MIC.
The mark [24] stands for this setting: agar dilution, Streptococcus Group D 2041, read-out: MIC.

Broadly, the ED50 is the midpoint of the dose-response relation.

For `CCC1OC(=O)CC(O)C(C)C(OC2OC(C)C(O)C(N(C)C)C2O)C(CC=O)CC(C)C(=O)C=CC(C)=CC1CN(Cc1ccccc1)C1CC2CCC1C2` (centres unmarked) [Compound 6, 23-deoxy-23-[N--benzyl-N--(bicyclo[2.2.1]hept-2-yl)amino]-OMT], the MIC in [1] (setting [16]) is 0.125 µg/mL (≈ 0.16 µM); in [3] (setting [18]), 0.25 µg/mL (≈ 0.32 µM); in [4] (Haemophilus influenzae), 1 µg/mL (≈ 1.28 µM); in test [5], 0.25 µg/mL (≈ 0.32 µM); in [6], 0.5 µg/mL (≈ 0.64 µM); in [7] (setting [19]) it was 0.06 µg/mL (≈ 0.0768 µM). Besides, the MIC in test [8] is 0.25 µg/mL (≈ 0.32 µM); in test [9] (setting [20]), 0.06 µg/mL (≈ 0.0768 µM); in [10], 0.25 µg/mL (≈ 0.32 µM); in test [11], 0.25 µg/mL (≈ 0.32 µM); in test [12] it was 0.25 µg/mL (≈ 0.32 µM); in test [13], 0.25 µg/mL (≈ 0.32 µM). Besides, the 50% effective dose (ED50) in test [2] (po, read-out: ED50 Oral) is > 100 mg/kg; in test [2] (setting [17]), > 10 mg/kg.
As to `CCC1OC(=O)CC(O)C(C)C(OC2OC(C)C(O)C(N(C)C)C2O)C(CC=O)CC(C)C(=O)C=CC(C)=CC1CN1CCC2(CCCCC2)CC1` (centres unmarked) [Compound 27, 23-deoxy-23-(3-azaspiro[5.5]undecan-3-yl)-OMT], the MIC in test [1] (setting [21]) stood at 0.06 µg/mL (≈ 0.0819 µM); in [3] (setting [18]), 0.5 µg/mL (≈ 0.682 µM); in test [4] (setting [22]), 2 µg/mL (≈ 2.73 µM); in test [5] it was 0.5 µg/mL (≈ 0.682 µM); in test [6], 2 µg/mL (≈ 2.73 µM); in [7] (setting [19]), 0.25 µg/mL (≈ 0.341 µM). Also, the MIC came out at 0.5 µg/mL (≈ 0.682 µM) in test [8]; 0.25 µg/mL (≈ 0.341 µM) in test [9] (setting [20]); 0.5 µg/mL (≈ 0.682 µM) in [10]; 0.5 µg/mL (≈ 0.682 µM) in [11]; 0.5 µg/mL (≈ 0.682 µM) in test [12]; 0.25 µg/mL (≈ 0.341 µM) in [13] (setting [23]). For the same molecule, the 50% effective dose (ED50) was > 10 mg/kg in test [2] (setting [17]), > 10 mg/kg in test [14] (setting [17]) and 3.08 mg/kg in test [15] (setting [17]).
Take `CCC1OC(=O)CC(O)C(C)C(OC2OC(C)C(O)C(N(C)C)C2O)C(CC=O)CC(C)C(=O)C=CC(C)=CC1CN1CCc2ccccc2C1` (centres unmarked) [Compound 29, 23-deoxy-23-(3,4-dihydro-1H--isoquinolin-2-yl)-OMT]: the MIC was 0.03 µg/mL (≈ 0.0421 µM) in [1] (Streptococcus pneumoniae); 0.125 µg/mL (≈ 0.175 µM) in test [3] (agar dilution, Staphylococcus epidermidis EPI1, read-out: MIC); 1 µg/mL (≈ 1.4 µM) in test [4] (setting [22]); 0.25 µg/mL (≈ 0.351 µM) in test [5]; 1 µg/mL (≈ 1.4 µM) in test [6]; 0.125 µg/mL (≈ 0.175 µM) in test [7] (setting [19]). Moreover, the MIC in test [8] (setting [24]) was determined as 0.25 µg/mL (≈ 0.351 µM); in [9] (setting [20]) it was 0.06 µg/mL (≈ 0.0842 µM); in test [10], 0.25 µg/mL (≈ 0.351 µM); in test [11] it was 0.25 µg/mL (≈ 0.351 µM); in [12], 0.25 µg/mL (≈ 0.351 µM); in test [13] (setting [23]) it was 0.125 µg/mL (≈ 0.175 µM). Besides, the ED50 in [2] (setting [17]), in test [14] (setting [17]) and in test [15] (setting [17]) was > 10 mg/kg throughout.
Regarding `CCC1OC(=O)CC(O)C(C)C(OC2OC(C)C(O)C(N(C)C)C2O)C(CC=O)CC(C)C(=O)C=CC(C)=CC1CN1CCC2CCCCC2C1` (centres unmarked) [Compound 33, 23-deoxy-23-(octahydro-1H--isoquinolin-2-yl)-OMT], the MIC was found to be 0.06 µg/mL (≈ 0.0835 µM) in [1] (setting [21]); 0.5 µg/mL (≈ 0.695 µM) in test [3] (setting [18]); 0.5 µg/mL (≈ 0.695 µM) in test [4] (Haemophilus influenzae); 0.5 µg/mL (≈ 0.695 µM) in [5]; 0.25 µg/mL (≈ 0.348 µM) in test [6]; 0.125 µg/mL (≈ 0.174 µM) in [7] (setting [19]). Moreover, the MIC in [8] was 0.5 µg/mL (≈ 0.695 µM); in test [9] (Streptococcus pyogenes, C203), 0.03 µg/mL (≈ 0.0417 µM); in [10], 0.5 µg/mL (≈ 0.695 µM); in test [11] it was 0.25 µg/mL (≈ 0.348 µM); in test [12], 0.5 µg/mL (≈ 0.695 µM); in test [13], 0.5 µg/mL (≈ 0.695 µM). For the same molecule, the median effective dose (ED50) was > 10 mg/kg in test [2] (setting [17]), 10 mg/kg in test [14] (setting [17]) and 7.56 mg/kg in [15] (setting [17]).
As for `CCC1OC(=O)CC(O)C(C)C(OC2OC(C)C(O)C(N(C)C)C2O)C(CC=O)CC(C)C(=O)C=CC(C)=CC1CN1CCC2CCCCC21` (centres unmarked) [Compound 35, 23-deoxy-23-(octahydro-1H--indol-1-yl)-OMT], the MIC was found to be 1 µg/mL (≈ 1.42 µM) in test [1] (setting [16]); 0.25 µg/mL (≈ 0.355 µM) in test [3] (setting [18]); 0.5 µg/mL (≈ 0.709 µM) in [4] (setting [22]); 0.25 µg/mL (≈ 0.355 µM) in [5]; 1 µg/mL (≈ 1.42 µM) in test [6]; 0.125 µg/mL (≈ 0.177 µM) in test [7] (setting [19]). In addition, the MIC is 0.25 µg/mL (≈ 0.355 µM) in test [8]; 0.5 µg/mL (≈ 0.709 µM) in test [9] (Streptococcus pyogenes, C203); 0.25 µg/mL (≈ 0.355 µM) in test [10]; 0.25 µg/mL (≈ 0.355 µM) in test [11]; 0.25 µg/mL (≈ 0.355 µM) in test [12]; 0.25 µg/mL (≈ 0.355 µM) in test [13]. The ED50 in test [2] (po, read-out: ED50 Oral) was found to be 87.1 mg/kg; in test [2] (setting [17]), 1.86 mg/kg; in test [14] (po, read-out: ED50 Oral), 71 mg/kg; in test [15] (po, read-out: ED50 Oral) it was 100 mg/kg. Besides, in [2] (subcutaneous), the “ED50 Subcutaneous” value is 2.5 mg/kg × 2.
Regarding `CCC1OC(=O)CC(O)C(C)C(OC2OC(C)C(O)C(N(C)C)C2O)C(CC=O)CC(C)C(=O)C=CC(C)=CC1CN1CC2CC=CCC2C1` (centres unmarked) [Compound 37], the MIC was 0.125 µg/mL (≈ 0.178 µM) in test [1] (setting [16]); 0.25 µg/mL (≈ 0.356 µM) in test [3] (setting [18]); 0.5 µg/mL (≈ 0.711 µM) in test [4] (setting [22]); 0.25 µg/mL (≈ 0.356 µM) in test [5]; 1 µg/mL (≈ 1.42 µM) in test [6]; 0.06 µg/mL (≈ 0.0854 µM) in [7] (Staphylococcus epidermidis, 222). In addition, the MIC was 0.25 µg/mL (≈ 0.356 µM) in test [8] (setting [24]); 0.06 µg/mL (≈ 0.0854 µM) in test [9] (Streptococcus pyogenes, C203); 0.25 µg/mL (≈ 0.356 µM) in [10]; 0.25 µg/mL (≈ 0.356 µM) in test [11]; 0.25 µg/mL (≈ 0.356 µM) in test [12]; 0.125 µg/mL (≈ 0.178 µM) in [13] (setting [23]). The median effective dose (ED50) in [2] (po, read-out: ED50 Oral) was 87 mg/kg; in test [14] (po, read-out: ED50 Oral) it was 87 mg/kg; in [14] (setting [17]), 1.66 mg/kg; in [15] (po, read-out: ED50 Oral), 85 mg/kg; in [15] (setting [17]) it was 2.74 mg/kg. The “ED50 Subcutaneous” value in test [14] (subcutaneous) was 2.97 mg/kg × 2; in test [15] (subcutaneous), 3.92 mg/kg × 2 and 3.42 mg/kg × 2.
